The source of these data is ChEMBL document CHEMBL1201862, “PubChem BioAssay data set” (2004).

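Exposure lasted 48 hours, with cells grown in 96-well plates and compounds tested at five concentrations. At the GI50, growth is halved.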 Calls of active or inactive are those of the source. Cut-off read from the data, not from the text of the source: active = GI50 up to about 1.1 µM and inactive = higher.

Test in all cases: inhibition of tumour cell growth, NCI panel, 48 h
The test system of assay [1] is NCI/ADR-RES.
Assay [2] concerns IGROV-1.
The subject of assay [3] is Malme-3M.
Assay [4] deals with HL-60.
The test system of assay [5] is MDA-MB-435.
For assay [6], the system named is MOLT-4.
Assay [7] relates to RXF 393.
The test system of assay [8] is 786-0.
The subject of assay [9] is RPMI-8226.
Assay [10] concerns U-251.
Assay [11] relates to SW-620.
Assay [12] relates to MCF7.
The test system of assay [13] is COLO 205.
Assay [14] deals with HCT-116.
In assay [15] the test system is SNB-75.
Assay [16] deals with OVCAR-3.
The test system of assay [17] is EKVX.
Assay [18] has as its system MDA-MB-231.
For assay [19], the system named is UO-31.
Assay [20] deals with TK-10.
The subject of assay [21] is HOP-92.
Assay [22] has as its system DU-145.
Assay [23] concerns HOP-62.
Assay [24] has as its system HT-29.
Assay [25] concerns HCT-15.
Assay [26] has as its system HCC 2998.
Assay [27] has as its system Hs-578T.
The subject of assay [28] is ACHN.
For assay [29], the system named is SR.
Assay [30] concerns NCI-H460.
In assay [31] the test system is SK-MEL-28.
Assay [32] has as its system SN12C.
Assay [33] has as its system OVCAR-5.
In assay [34] the test system is UACC-257.
The test system of assay [35] is PC-3.
For assay [36], the system named is SF-268.
Assay [37] concerns A498.
Assay [38] deals with OVCAR-8.
The subject of assay [39] is NCI-H23.
Assay [40] concerns CAKI-1.
Assay [41] deals with SF-295.
For assay [42], the system named is KM12.
Assay [43] has as its system SK-MEL-5.
For assay [44], the system named is A549.
The subject of assay [45] is K562.
For assay [46], the system named is SK-OV-3.
In assay [47] the test system is SNB-19.
The test system of assay [48] is NCI-H522.
Assay [49] relates to UACC-62.
Assay [50] concerns T47D.
Assay [51] has as its system SK-MEL-2.
In assay [52] the test system is OVCAR-4.
The test system of assay [53] is M14.
For assay [54], the system named is NCI-H226.
In assay [55] the test system is SF-539.
For assay [56], the system named is CCRF-CEM.

Consider `COc1cccc(/C=N/NC(=O)CSCC(=O)N/N=C/c2cccc(OC)c2OC)c1OC`, for which the GI50 in assay [1], in assay [2], in [3], in [4], in assay [5] and in assay [6] was > 100 µM (inactive) throughout. The GI50 in assay [7], in assay [8], in [9], in assay [10], in assay [11] and in assay [12] was > 100 µM (inactive) throughout. Also, the GI50 in [13], in [14], in assay [15], in [16], in [17] and in assay [18] was > 100 µM (inactive) throughout. Also, the GI50 in [19], in assay [20], in assay [21], in assay [22], in [23] and in [24] was > 100 µM (inactive) each time. The GI50 in assay [25] was above 100 µM; in assay [26], > 100 µM (inactive); in assay [27], 37.7 µM (inactive); in [28], > 100 µM (inactive); in assay [29], > 100 µM (inactive); in assay [30], > 100 µM (inactive). The GI50 in [31], in assay [32], in assay [33], in assay [34], in assay [35] and in assay [36] was > 100 µM (inactive) throughout. For the same compound, the GI50 is 51.2 µM (inactive) in assay [37]; > 100 µM (inactive) in [38]; > 100 µM (inactive) in assay [39]; > 100 µM (inactive) in [40]; > 100 µM (inactive) in assay [41]; > 100 µM (inactive) in assay [42]. Further, the GI50 in [43] is 58.3 µM (inactive); in assay [44] it was > 100 µM (inactive); in assay [45], > 100 µM (inactive); in assay [46], > 100 µM (inactive); in assay [47], > 100 µM (inactive); in assay [48] it was > 100 µM (inactive). Moreover, the GI50 in assay [49], in assay [50], in assay [51], in [52], in [53] and in [54] was > 100 µM (inactive) each time. In addition, the GI50 in assay [55] is > 100 µM (inactive).

In the case of `C[C@@H]1O[C@@H](O[C@H]2C[C@@H](O)[C@]3(CO)[C@H]4[C@H](O)C[C@]5(C)[C@@H](C6=CC(=O)OC6)CC[C@]5(O)[C@@H]4CC[C@]3(O)C2)[C@H](O)[C@H](O)[C@H]1O` [OUABAIN], the GI50 is 0.0162 µM (active) in assay [15] and 21.1 µM (inactive) in assay [56].

For the compound `C[C@H](CCC(=O)O)[C@H]1CC[C@H]2[C@@H]3CC[C@@H]4C[C@H](O)CC[C@]4(C)[C@H]3CC[C@]12C` [LITHOCHOLIC ACID], the GI50 in assay [37] is > 100 µM (inactive).
